“Also recorded” adds a separate entry of the source.

For series [1] the following is noted: in vivo; cited from earlier work.
For series [2] the following is noted: systemic CAI; cited from earlier work.
The test system of another series is neovascularization. Briefly: Contemplated clinical cases: intravitreal or periocular CAI against neovascularization. In kind it is in vivo. The settings on record: contemplated cases: 50 mcg intravitreal (Example 9); 200 mcg intravitreal then periocular sustained-release (Example 10). From the text: The following contemplated clinical cases of angiogenesis are presented as examples of methods of treatment and not as limitations. Other illustrations of treating systemic or localized angiogenesis are not presented, since the principles involved are similar, and will be apparent to the skilled reader based upon review of an individual's clinical manifestation and the preferred embodiments of the inventive compositions.
Person with Proliferative Diabetic Retinopathy and threshold high-risk characteristics presents with Vitreous Hemorrhage. The patient also has atrial fibrillation and ischemic cardiomyopathy that requires oral Coumadin. The patient is intolerant to topical Panretinal Photocoagulation. The INR measured at just less than 2. […] The patients Vitreous Hemorrhage slowly resolves and the patient is able to taper their Coumadin so that Panretinal Photocoagulation can be placed with retrobulbar anesthesia. Alternately, the patient remains on Coumadin and then is treated with a patch periocular insert of CAI to diminish the neovascularization.
Person with a two-week history of central scotoma. They developed a large disciform scar in the contralateral eye after several sessions of photodynamic therapy. On exam and fluorescein angiography is predominately classic subfoveal membrane is noted. […]

The conditions of series [3]: cited from earlier work.
The conditions of series [4]: cited from earlier work. The source holds these as a separate data set.

Take `NC(=O)c1nnn(Cc2cc(Cl)c(C(=O)c3ccc(Cl)cc3)c(Cl)c2)c1N` [CAI]: the physiological tissue concentrations in series [1] is 1-10 μM. Besides, the “plasma concentrations associated with unacceptable toxicity” value in series [2] was “above 100 micromolar”. For the same molecule, in the series with neovascularization, the neovascular regression entry is given as “some neovascular regression; also recorded: neovascular regression occurs”. In addition, the “serious side effect associated with clinical use” value in series [3] (systemic administration, two cases described) is recorded as “loss of vision”. In addition, the “toxic effects observed in clinical studies” value in series [3] (systemic oral dosage regimens) is “cerebellar ataxia, peripheral neuropathy and exacerbation of depression”.

Take `C[C@@H]1C[C@H]2[C@@H]3CCC4=CC(=O)C=C[C@]4(C)[C@@]3(F)[C@@H](O)C[C@]2(C)[C@@]1(O)C(=O)CO` [Dexamethasone]: the “concentration detected in the vitreous cavity” value in series [4] (single 5 mg peribulbar injection in humans) is 13 ng/mL. Further, in series [4] (subconjunctival injection), the “delivery to the subretinal space, higher following subconjunctival injection” value is 10 fold.

The values above are taken from patent publication US9629826B2, “CAI-based systems and methods for the localized treatment of uveitis” (Gen Pharma Holdings, LLC., priority 2014, dated 2017).
